The values below come from patent publication US10189841B2, “Purinones as ubiquitin-specific protease 1 inhibitors” (Forma Therapeutics, Inc., priority 2015, dated 2019).

The assay deals with USP1 (construct USP1 (I-785, GG670, 671AA)/UAF1 (I-677)-Flag) (Homo sapiens (Human), UniProt O94782, G670A/G671A). Description: Ubiquitin-Rhodamine 110 assay for USP1 activity. It is filed as biochemical. The conditions noted are these: USP1/UAF1 25 pM, Ub-Rh110 25 nM, 30 min preincubation. In short, it runs like this:
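Two formats with the USP1/UAF1 complex and 25 nM ubiquitin-rhodamine 110 in pH 8.0 Tris buffer with calcium, glutathione and detergent. Single-point screening used 10 µM, 100 pM enzyme and 45 min. Inhibition was set against no-enzyme and DMSO wells.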

pIC50: −log10 of the molar value.

USP1 (construct USP1 (I-785, GG670, 671AA)/UAF1 (I-677)-Flag), sequence (O94782 whole entry G670A/G671A): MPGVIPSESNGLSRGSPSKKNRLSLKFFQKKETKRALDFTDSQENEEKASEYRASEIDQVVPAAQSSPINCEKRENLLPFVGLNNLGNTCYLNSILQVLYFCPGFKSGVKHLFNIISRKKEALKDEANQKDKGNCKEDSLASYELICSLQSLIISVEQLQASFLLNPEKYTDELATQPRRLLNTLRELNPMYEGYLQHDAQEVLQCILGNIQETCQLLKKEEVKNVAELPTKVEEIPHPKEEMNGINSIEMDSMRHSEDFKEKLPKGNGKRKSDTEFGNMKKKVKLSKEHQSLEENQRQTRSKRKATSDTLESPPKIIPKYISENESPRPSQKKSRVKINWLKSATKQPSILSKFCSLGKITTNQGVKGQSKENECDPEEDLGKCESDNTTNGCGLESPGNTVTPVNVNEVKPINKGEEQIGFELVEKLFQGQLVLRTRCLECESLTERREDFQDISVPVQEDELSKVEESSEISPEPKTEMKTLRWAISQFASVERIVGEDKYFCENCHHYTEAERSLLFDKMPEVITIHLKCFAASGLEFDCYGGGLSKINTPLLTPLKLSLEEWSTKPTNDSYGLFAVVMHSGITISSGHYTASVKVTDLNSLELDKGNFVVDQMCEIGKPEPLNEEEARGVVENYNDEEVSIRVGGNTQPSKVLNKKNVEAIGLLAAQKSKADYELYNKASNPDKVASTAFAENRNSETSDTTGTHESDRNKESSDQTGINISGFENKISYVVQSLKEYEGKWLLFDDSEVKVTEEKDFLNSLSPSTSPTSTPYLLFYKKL
USP1 (construct USP1 (I-785, GG670, 671AA)/UAF1 (I-677)-Flag), sequence (Q8TAF3 whole entry partner): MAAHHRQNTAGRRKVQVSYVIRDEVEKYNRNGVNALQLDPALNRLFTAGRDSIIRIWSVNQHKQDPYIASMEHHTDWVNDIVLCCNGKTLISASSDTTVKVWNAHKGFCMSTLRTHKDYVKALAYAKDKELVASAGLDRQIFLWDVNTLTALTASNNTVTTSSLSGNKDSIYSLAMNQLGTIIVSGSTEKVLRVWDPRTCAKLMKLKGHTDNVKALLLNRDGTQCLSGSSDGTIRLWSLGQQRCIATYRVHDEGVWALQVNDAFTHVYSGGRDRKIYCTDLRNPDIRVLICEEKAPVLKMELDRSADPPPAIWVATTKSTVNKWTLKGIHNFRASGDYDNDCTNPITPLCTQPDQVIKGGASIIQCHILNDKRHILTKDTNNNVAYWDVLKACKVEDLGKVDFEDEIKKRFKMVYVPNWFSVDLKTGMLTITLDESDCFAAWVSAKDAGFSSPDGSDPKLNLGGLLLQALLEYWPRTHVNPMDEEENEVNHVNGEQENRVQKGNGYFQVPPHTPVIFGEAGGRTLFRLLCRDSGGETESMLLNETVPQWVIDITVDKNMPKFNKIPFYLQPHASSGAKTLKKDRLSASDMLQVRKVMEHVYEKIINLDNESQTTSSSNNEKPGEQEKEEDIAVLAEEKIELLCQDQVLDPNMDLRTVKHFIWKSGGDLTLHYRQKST

For the compound `CC(C)c1ccccc1-c1ncc2[nH]c(=O)n(Cc3ccc(-c4cncn4C)cc3)c2n1` [Compound I-251, 2-(2-isopropylphenyl)-9-(4-(1-methyl-1H-imidazol-5-yl)benzyl)-7,9-dihydro-8H-purin-8-one], the pIC50 is 5.70 to 6.70.
For the compound `CC(C)c1ccccc1-c1ncc2[nH]c(=O)n(Cc3ccc(-c4nc(C(F)(F)F)cn4C4COC4)cc3)c2n1` [Compound I-192, 2-(2-isopropylphenyl)-9-(4-(1-(oxetan-3-yl)-4-(trifluoromethyl)-1H-imidazol-2-yl)benzyl)-7,9-dihydro-8H-purin-8-one], the negative-log IC50 (pIC50) was more than 7.30.
`CC(C)c1ccccc1-c1ncc2c(n1)n(Cc1ccc(OCC3CCOC3)cc1)c(=O)n2C` (stereo not shown) [Compound I-229, 2-(2-isopropylphenyl)-7-methyl-9-(4-((tetrahydrofuran-3-yl)methoxy)benzyl)-7,9-dihydro-8H-purin-8-one] had a pIC50 of 6.70 to 7.30.
Under `Cn1cc(C(F)(F)F)nc1-c1ccc(Cn2c(=O)[nH]c3cnc(-c4cccnc4NC4CC4)nc32)cc1` [Compound I-314, 2-(2-(cyclopropylamino)pyridin-3-yl)-9-(4-(1-methyl-4-(trifluoromethyl)-1H-imidazol-2-yl)benzyl)-7,9-dihydro-8H-purin-8-one] stands more than 7.30.
As to `Cc1scnc1-c1ccc(Cn2c(=O)[nH]c3cnc(-c4ccccc4C(C)C)nc32)cc1` [Compound I-300, 2-(2-isopropylphenyl)-9-(4-(5-methylthiazol-4-yl)benzyl)-7,9-dihydro-8H-purin-8-one], the pIC50 is more than 7.30.
The same measure for `CC(C)c1ncccc1-c1ncc2[nH]c(=O)n([C@H](C)c3ccc(-c4nc(C(F)(F)F)cn4C)cc3)c2n1` [Compound I-79, (R)-2-(2-isopropylpyridin-3-yl)-9-(1-(4-(1-methyl-4-(trifluoromethyl)-1H-imidazol-2-yl)phenyl)ethyl)-7,9-dihydro-8H-purin-8-one]: more than 7.30.
Under `CC(C)c1ccccc1-c1ncc2[nH]c(=O)n(Cc3ccc(-c4ccc(CCN(C)C)cc4)cc3)c2n1` [Compound I-249, 9-((4′-(2-(dimethylamino)ethyl)-[1,1′-biphenyl]-4-yl)methyl)-2-(2-isopropylphenyl)-7,9-dihydro-8H-purin-8-one] stands 5.70 to 6.70; under `CC(C)c1ccccc1-c1ncc2[nH]c(=O)n(C3CCN(c4cccnc4)CC3)c2n1` [Compound I-144, 2-(2-isopropylphenyl)-9-(1-(pyridin-3-yl)piperidin-4-yl)-7,9-dihydro-8H-purin-8-one], less than 5.70; under `Cc1cc(C(F)F)nn1-c1ccc(Cn2c(=O)[nH]c3cnc(-c4cccnc4C(C)C)nc32)cc1` [Compound I-58, 9-(4-(3-(difluoromethyl)-5-methyl-1H-pyrazol-1-yl)benzyl)-2-(2-isopropylpyridin-3-yl)-7,9-dihydro-8H-purin-8-one], more than 7.30.
As for `CC(C)c1ccccc1-c1ncc2[nH]c(=O)n(Cc3ccc(C(=O)N4CCCC4)cc3)c2n1` [Compound I-389, 2-(2-isopropylphenyl)-9-(4-(pyrrolidine-1-carbonyl)benzyl)-7,9-dihydro-8H-purin-8-one], the pIC50 is more than 7.30.
Consider `Cc1cc(C)n(-c2cnc(Cn3c(=O)[nH]c4cnc(-c5ccccc5C(C)C)nc43)cn2)n1` [Compound I-510, 9-((5-(3,5-Dimethyl-1H-pyrazol-1-yl)pyrazin-2-yl)methyl)-2-(2-isopropylphenyl)-7,9-dihydro-8H-purin-8-one], for which the pIC50 was 6.70 to 7.30.
The same measure for `CC(C)c1ccccc1-c1ncc2[nH]c(=O)n([C@@H](C)c3ccc(-c4nccn4C)cc3)c2n1` [Compound I-310, (S)-2-(2-isopropylphenyl)-9-(1-(4-(1-methyl-1H-imidazol-2-yl)phenyl)ethyl)-7,9-dihydro-8H-purin-8-one]: more than 7.30; for `CC(C)c1ncccc1-c1ncc2[nH]c(=O)n(Cc3ccc(-n4ccc(C5CCNCC5)n4)cc3)c2n1` [Compound I-435, 2-(2-isopropylpyridin-3-yl)-9-(4-(3-(piperidin-4-yl)-1H-pyrazol-1-yl)benzyl)-7,9-dihydro-8H-purin-8-one]: less than 5.70.
Regarding `CC(C)c1ccccc1-c1ncc2[nH]c(=O)n(Cc3ccc(-c4nc(C(F)(F)F)n(C)n4)cc3)c2n1` [Compound I-293, 2-(2-isopropylphenyl)-9-(4-(1-methyl-5-(trifluoromethyl)-1H-1,2,4-triazol-3-yl)benzyl)-7,9-dihydro-8H-purin-8-one], the pIC50 is more than 7.30.
In turn, `Cc1cc(C)n(-c2ccc([C@H](C)n3c(=O)[nH]c4cnc(-c5ccccc5C(C)C)nc43)cc2)n1` [Compound I-191, (S)-9-(1-(4-(3,5-dimethyl-1H-pyrazol-1-yl)phenyl)ethyl)-2-(2-isopropylphenyl)-7,9-dihydro-8H-purin-8-one] had a pIC50 of more than 7.30.
The same measure for `CC(C)c1ccccc1-c1ncc2[nH]c(=O)n(Cc3ccc(S(C)(=O)=O)cc3)c2n1` [Compound I-183, 2-(2-isopropylphenyl)-9-(4-(methylsulfonyl)benzyl)-7,9-dihydro-8H-purin-8-one]: less than 5.70.
Under `COCCN(C)c1ccc(Cn2c(=O)n(C)c3cnc(-c4ccccc4C(C)C)nc32)cc1` [Compound I-491, 2-(2-isopropylphenyl)-9-(4-((2-methoxyethyl)(methyl)amino)benzyl)-7-methyl-7,9-dihydro-8H-purin-8-one] stands 5.70 to 6.70.
Take `CC(=O)N1CCC(c2ccn(-c3ccc(Cn4c(=O)[nH]c5cnc(-c6cccnc6C(C)C)nc54)cc3)n2)CC1` [Compound I-465, 9-(4-(3-(1-acetylpiperidin-4-yl)-1H-pyrazol-1-yl)benzyl)-2-(2-isopropylpyridin-3-yl)-7,9-dihydro-8H-purin-8-one]: the pIC50 was 5.70 to 6.70.
The same measure for `CC(C)c1ncc(F)cc1-c1ncc2[nH]c(=O)n(Cc3ccc(-c4nc(C(F)(F)F)cn4C)cc3)c2n1` [Compound I-67, 2-(5-fluoro-2-isopropylpyridin-3-yl)-9-(4-(1-methyl-4-(trifluoromethyl)-1H-imidazol-2-yl)benzyl)-7,9-dihydro-8H-purin-8-one]: more than 7.30.
The same measure for `CC(C)c1ccccc1-c1ncc2c(n1)n(Cc1ccc(-c3nc(C#N)cn3C)cc1)c(=O)n2C` [Compound I-541, 2-(4-((2-(2-Isopropylphenyl)-7-methyl-8-oxo-7,8-dihydro-9H-purin-9-yl)methyl)phenyl)-1-methyl-1H-imidazole-4-carbonitrile]: more than 7.30; for `CC(C)NC(=O)N1CCC(Cn2c(=O)n(C)c3cnc(-c4ccccc4C(C)C)nc32)CC1` [Compound I-478, N-isopropyl-4-((2-(2-isopropylphenyl)-7-methyl-8-oxo-7,8-dihydro-9H-purin-9-yl)methyl)piperidine-1-carboxamide]: less than 5.70; for `COc1nc(-c2ccccc2C(C)C)nc2c1[nH]c(=O)n2Cc1ccc(-c2nc(C(F)(F)F)cn2C)cc1` [Compound I-535, 2-(2-Isopropylphenyl)-6-methoxy-9-(4-(1-methyl-4-(trifluoromethyl)-1H-imidazol-2-yl)benzyl)-7,9-dihydro-8H-purin-8-one]: more than 7.30.
For the compound `Cn1cc(C(F)(F)F)nc1-c1ccc(Cn2c(=O)[nH]c3cnc(-c4cccnc4C(F)F)nc32)cc1` [Compound I-64, 2-(2-(difluoromethyl)pyridin-3-yl)-9-(4-(1-methyl-4-(trifluoromethyl)-1H-imidazol-2-yl)benzyl)-7,9-dihydro-8H-purin-8-one], the pIC50 was 6.70 to 7.30.
Turning to `CC(C)C(=O)N1CCC(F)(Cn2c(=O)[nH]c3cnc(-c4ccccc4C(C)C)nc32)CC1` [Compound I-475, 9-((4-fluoro-1-isobutyrylpiperidin-4-yl)methyl)-2-(2-isopropylphenyl)-7,9-dihydro-8H-purin-8-one], the pIC50 is less than 5.70.
As for `CC(C)c1ccccc1-c1ncc2c(n1)n(Cc1ccc(-c3nc(N4CCOCC4)n(C)n3)cc1)c(=O)n2C` [Compound I-282, 2-(2-isopropylphenyl)-7-methyl-9-(4-(1-methyl-5-morpholino-1H-1,2,4-triazol-3-yl)benzyl)-7,9-dihydro-8H-purin-8-one], the pIC50 is 6.70 to 7.30.
Compound `CC(C)c1ccccc1-c1ncc2c(n1)n(Cc1ccc(N(C)S(=O)(=O)c3ccn(C)n3)cc1)c(=O)n2C` [Compound I-456, N-(4-((2-(2-isopropylphenyl)-7-methyl-8-oxo-7,8-dihydro-9H-purin-9-yl)methyl)phenyl)-N,1-dimethyl-1H-pyrazole-3-sulfonamide] showed a negative logarithm of the IC50 (pIC50) of 6.70 to 7.30.
Compound `CC(C)c1ccccc1-c1ncc2c(n1)n(Cc1ccc(-c3nnc4ccccn34)cc1)c(=O)n2C` [Compound I-286, 9-(4-([1,2,4]triazolo[4,3-a]pyridin-3-yl)benzyl)-2-(2-isopropylphenyl)-7-methyl-7,9-dihydro-8H-purin-8-one] gave a pIC50 of more than 7.30.
Under `CC(C)c1c(F)cccc1-c1ncc2[nH]c(=O)n(Cc3ccc(-n4cc5c(n4)CNC5)cc3)c2n1` [Compound I-104, 9-(4-(5,6-dihydropyrrolo[3,4-c]pyrazol-2(4H)-yl)benzyl)-2-(3-fluoro-2-isopropylphenyl)-7,9-dihydro-8H-purin-8-one] stands 5.70 to 6.70; under `CC(C)c1ccccc1-c1ncc2[nH]c(=O)n(Cc3ccc(-n4ccc(C(F)(F)F)n4)cc3)c2n1` [Compound I-149, 2-(2-isopropylphenyl)-9-(4-(3-(trifluoromethyl)-1H-pyrazol-1-yl)benzyl)-7,9-dihydro-8H-purin-8-one], 6.70 to 7.30; under `COc1cc(C)n(-c2ccc(Cn3c(=O)[nH]c4cnc(-c5cccnc5C(C)C)nc43)cc2)n1` [Compound I-78, 2-(2-isopropylpyridin-3-yl)-9-(4-(3-methoxy-5-methyl-1H-pyrazol-1-yl)benzyl)-7,9-dihydro-8H-purin-8-one], more than 7.30.
Under `CC(C)NC(=O)N(C)c1ccc(Cn2c(=O)n(C)c3cnc(-c4ccccc4C(C)C)nc32)cc1` [Compound I-484, 3-isopropyl-1-(4-((2-(2-isopropylphenyl)-7-methyl-8-oxo-7,8-dihydro-9H-purin-9-yl)methyl)phenyl)-1-methylurea] stands 5.70 to 6.70.
